Tests used:
[1] = molecular target: T1, Solute carrier organic anion transporter family member 1A1 (Rattus norvegicus, UniProt P46720); assay: TP_TRANSPORTER: inhibition of LTC4 uptake (LTC4: 0.01uM, Ouabain: 500 uM) in Xenopus laevis oocytes; format: functional, cell-based, Oocyte; set-up: scale not given: the % may be the effect or the level left; conditions: probe LTC4, read-out: Activity
T1 sequence (P46720 whole entry): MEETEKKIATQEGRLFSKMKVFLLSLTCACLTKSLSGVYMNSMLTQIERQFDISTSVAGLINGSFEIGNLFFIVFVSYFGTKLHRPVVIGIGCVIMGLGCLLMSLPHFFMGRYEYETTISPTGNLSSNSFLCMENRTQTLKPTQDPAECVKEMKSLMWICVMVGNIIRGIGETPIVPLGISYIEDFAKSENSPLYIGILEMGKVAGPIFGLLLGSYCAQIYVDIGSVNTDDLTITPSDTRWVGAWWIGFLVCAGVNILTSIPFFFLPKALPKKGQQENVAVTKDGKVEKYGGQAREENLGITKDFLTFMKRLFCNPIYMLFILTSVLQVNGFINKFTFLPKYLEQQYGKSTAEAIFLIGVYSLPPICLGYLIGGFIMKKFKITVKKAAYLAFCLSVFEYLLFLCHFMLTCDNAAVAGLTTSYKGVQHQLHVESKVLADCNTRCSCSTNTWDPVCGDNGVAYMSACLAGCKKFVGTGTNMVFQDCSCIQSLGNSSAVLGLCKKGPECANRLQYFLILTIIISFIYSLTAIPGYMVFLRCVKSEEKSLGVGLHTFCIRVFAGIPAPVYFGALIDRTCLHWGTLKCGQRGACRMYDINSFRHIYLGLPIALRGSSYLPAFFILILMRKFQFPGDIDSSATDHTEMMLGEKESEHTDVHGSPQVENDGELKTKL

[2] = molecular target: T1, Solute carrier organic anion transporter family member 1A1; assay: TP_TRANSPORTER: inhibition of DNP-SG uptake (DNP-SG: 50 uM, Ouabain: 500 uM) in Xenopus laevis oocytes; format: functional, cell-based, Oocyte; set-up: scale not given: the % may be the effect or the level left; conditions: probe DNP-SG, read-out: Activity
[3] = molecular target: T1, Solute carrier organic anion transporter family member 1A1; assay: TP_TRANSPORTER: inhibition of LTC4 uptake (LTC4: 0.01uM, Bilirubin ditaurate: 500 uM) in Xenopus laevis oocytes; format: functional, cell-based, Oocyte; set-up: scale not given: the % may be the effect or the level left; conditions: probe LTC4, read-out: Activity
[4] = molecular target: T1, Solute carrier organic anion transporter family member 1A1; assay: TP_TRANSPORTER: inhibition of DNP-SG uptake (DNP-SG: 50 uM, Bilirubin ditaurate: 500 uM) in Xenopus laevis oocytes; format: functional, cell-based, Oocyte; set-up: scale not given: the % may be the effect or the level left; conditions: probe DNP-SG, read-out: Activity
[5] = molecular target: T1, Solute carrier organic anion transporter family member 1A1; assay: TP_TRANSPORTER: inhibition of LTC4 uptake (LTC4: 0.01uM, DIDS: 250 uM) in Xenopus laevis oocytes; format: functional, cell-based, Oocyte; set-up: scale not given: the % may be the effect or the level left; conditions: probe LTC4, read-out: Activity
[6] = molecular target: T1, Solute carrier organic anion transporter family member 1A1; assay: TP_TRANSPORTER: inhibition of DNP-SG uptake (DNP-SG: 50 uM, DIDS: 250 uM) in Xenopus laevis oocytes; format: functional, cell-based, Oocyte; set-up: scale not given: the % may be the effect or the level left; conditions: probe DNP-SG, read-out: Activity
[7] = molecular target: T1, Solute carrier organic anion transporter family member 1A1; assay: TP_TRANSPORTER: inhibition of LTC4 uptake (LTC4: 0.01uM, DNP-SG: 1000 uM) in Xenopus laevis oocytes; format: functional, cell-based; set-up: scale not given: the % may be the effect or the level left; conditions: oocyte
[8] = molecular target: T1, Solute carrier organic anion transporter family member 1A1; assay: TP_TRANSPORTER: inhibition of DNP-SG uptake (DNP-SG: 50 uM, BSP: 250 uM) in Xenopus laevis oocytes; format: functional, cell-based; set-up: scale not given: the % may be the effect or the level left; conditions: oocyte
[9] = molecular target: T1, Solute carrier organic anion transporter family member 1A1; assay: TP_TRANSPORTER: inhibition of LTC4 uptake (LTC4: 0.01uM, BSP: 250 uM) in Xenopus laevis oocytes; format: functional, cell-based, Oocyte; set-up: scale not given: the % may be the effect or the level left; conditions: probe LTC4, read-out: Activity
[10] = molecular target: T1, Solute carrier organic anion transporter family member 1A1; assay: TP_TRANSPORTER: inhibition of DNP-SG uptake (DNP-SG: 50 uM, p-Chlorophenacyl-SG: 1000 uM) in Xenopus laevis oocytes; format: functional, cell-based, Oocyte; set-up: scale not given: the % may be the effect or the level left; conditions: probe DNP-SG, read-out: Activity
[11] = molecular target: T1, Solute carrier organic anion transporter family member 1A1; assay: TP_TRANSPORTER: inhibition of LTC4 uptake (LTC4: 0.01uM, p-Chlorophenacyl-SG: 1000 uM) in Xenopus laevis oocytes; format: functional, cell-based, Oocyte; set-up: scale not given: the % may be the effect or the level left; conditions: probe LTC4, read-out: Activity
[12] = substrate: CCCCC/C=C\C\C=C/C=C/C=C/[C@@H](SC[C@@H](NC(=O)CC[C@H](N)C(=O)O)C(=O)NCC(=O)O)[C@@H](O)CCCC(=O)O; assay: (§1) TP_TRANSPORTER: uptake in Xenopus laevis oocytes; format: functional, cell-based, Oocyte
[13] = substrate: N[C@@H](CCC(=O)N[C@H](CSc1ccc([N+](=O)[O-])cc1[N+](=O)[O-])C(=O)NCC(=O)O)C(=O)O; assay: as §1; format: functional, cell-based, Oocyte

C[C@@H]1O[C@@H](O[C@H]2C[C@@H](O)[C@]3(CO)[C@H]4[C@H](O)C[C@]5(C)[C@@H](C6=CC(=O)OC6)CC[C@]5(O)[C@@H]4CC[C@]3(O)C2)[C@H](O)[C@H](O)[C@H]1O [OUABAIN]
activity at 500 µM [1]: 52%
activity at 500 µM [2]: 61%

C=CC1=C(C)/C(=C/c2[nH]c(Cc3[nH]c(/C=C4\NC(=O)C(C)=C4C=C)c(C)c3CCC(=O)NCCS(=O)(=O)O)c(CCC(=O)NCCS(=O)(=O)O)c2C)NC1=O [BILIRUBIN DITAURATE]
activity at 500 µM [3]: 4%
activity at 500 µM [4]: 6%

O=S(=O)(O)c1cc(N=C=S)ccc1/C=C/c1ccc(NC=S)cc1S(=O)(=O)O
activity at 250 µM [5]: 25%
activity at 250 µM [6]: 39%

N[C@@H](CCC(=O)N[C@H](CSc1ccc([N+](=O)[O-])cc1[N+](=O)[O-])C(=O)NCC(=O)O)C(=O)O
Activity [7]: 15%

O=C1OC(c2ccc(O)c(S(=O)(=O)[O-])c2)(c2ccc(O)c(S(=O)(=O)[O-])c2)c2c(Br)c(Br)c(Br)c(Br)c21.[Na+].[Na+] [SULFOBROMOPHTHALEIN SODIUM]
Activity [8]: < 2%
activity at 250 µM [9]: < 2%

NC(CCC(=O)N[C@@H](CSCC(=O)c1ccc(Cl)cc1)C(=O)NCC(=O)O)C(=O)O (stereo partly drawn)
activity at 1000 µM [10]: 31%
activity at 1000 µM [11]: 23%

B1: Solute carrier organic anion transporter family member 1A1 (Rattus norvegicus) (protein)
chain: MEETEKKIATQEGRLFSKMKVFLLSLTCACLTKSLSGVYMNSMLTQIERQFDISTSVAGLINGSFEIGNLFFIVFVSYFGTKLHRPVVIGIGCVIMGLGCLLMSLPHFFMGRYEYETTISPTGNLSSNSFLCMENRTQTLKPTQDPAECVKEMKSLMWICVMVGNIIRGIGETPIVPLGISYIEDFAKSENSPLYIGILEMGKVAGPIFGLLLGSYCAQIYVDIGSVNTDDLTITPSDTRWVGAWWIGFLVCAGVNILTSIPFFFLPKALPKKGQQENVAVTKDGKVEKYGGQAREENLGITKDFLTFMKRLFCNPIYMLFILTSVLQVNGFINKFTFLPKYLEQQYGKSTAEAIFLIGVYSLPPICLGYLIGGFIMKKFKITVKKAAYLAFCLSVFEYLLFLCHFMLTCDNAAVAGLTTSYKGVQHQLHVESKVLADCNTRCSCSTNTWDPVCGDNGVAYMSACLAGCKKFVGTGTNMVFQDCSCIQSLGNSSAVLGLCKKGPECANRLQYFLILTIIISFIYSLTAIPGYMVFLRCVKSEEKSLGVGLHTFCIRVFAGIPAPVYFGALIDRTCLHWGTLKCGQRGACRMYDINSFRHIYLGLPIALRGSSYLPAFFILILMRKFQFPGDIDSSATDHTEMMLGEKESEHTDVHGSPQVENDGELKTKL
Km [12]: 0.27 µM
Km [13]: 408 µM
